Measurements reported in paper doi:10.1101/365775v1 (biorxiv, 2018).

Target: T1, mSec18 (monomeric Sec18; Sec18His8) (Saccharomyces cerevisiae, UniProt P18759)
T1 sequence (P18759 1-758): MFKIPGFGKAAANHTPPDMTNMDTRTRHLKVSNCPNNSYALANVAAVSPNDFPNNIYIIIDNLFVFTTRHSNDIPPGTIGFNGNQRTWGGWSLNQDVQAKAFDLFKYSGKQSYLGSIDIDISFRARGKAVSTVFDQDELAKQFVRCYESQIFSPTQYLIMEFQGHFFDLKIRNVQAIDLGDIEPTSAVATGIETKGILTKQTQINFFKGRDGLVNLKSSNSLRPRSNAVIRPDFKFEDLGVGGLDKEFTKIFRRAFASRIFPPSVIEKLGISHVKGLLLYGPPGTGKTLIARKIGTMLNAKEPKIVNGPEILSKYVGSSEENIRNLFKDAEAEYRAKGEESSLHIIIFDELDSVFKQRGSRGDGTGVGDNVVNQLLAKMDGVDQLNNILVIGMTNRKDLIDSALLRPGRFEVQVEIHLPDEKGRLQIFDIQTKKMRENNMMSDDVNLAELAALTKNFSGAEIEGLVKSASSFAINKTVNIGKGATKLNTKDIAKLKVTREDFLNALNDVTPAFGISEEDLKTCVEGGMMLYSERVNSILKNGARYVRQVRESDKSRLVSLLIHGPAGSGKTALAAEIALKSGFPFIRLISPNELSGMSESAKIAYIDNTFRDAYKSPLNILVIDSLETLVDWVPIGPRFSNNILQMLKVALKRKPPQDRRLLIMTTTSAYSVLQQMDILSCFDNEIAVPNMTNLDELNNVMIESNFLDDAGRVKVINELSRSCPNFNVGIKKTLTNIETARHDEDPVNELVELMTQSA
Assay: microscale thermophoresis
Type: binding

- Kd: 56 ± 16 µM
Compound: Nc1ncnc2c1ncn2[C@@H]1O[C@H](COP(=O)(O)OP(=O)(O)OP(=O)(O)O)[C@@H](O)[C@H]1O [ATP]
